# According to PubChem BioAssay (NCI):
# Where “and” joins values, the source holds several entries; their conditions need not be identical. Identical values can stand only once.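 1) Cells in 96-well plates. 2) Compound, 48 h, 5 concentrations. 3) Linear interpolation between surrounding doses. 4) Unreached endpoint = highest concentration. The concentration for 50% growth inhibition is given as GI50. TGI: total growth inhibition.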
# Columns and labels:
# Assay in all cases: inhibition of tumour cell growth, NCI panel, 48 h
# OVCAR-8 ovarian = system: OVCAR-8 ovarian
# KM12 colon = system: KM12 colon
# BT-549 breast = system: BT-549 breast
# U251 CNS = system: U251 CNS
# HL-60(TB) leukemia = system: HL-60(TB) leukemia
# 786-0 renal = system: 786-0 renal
# HCT-116 colon = system: HCT-116 colon
# RXF 393 renal = system: RXF 393 renal
# SF-539 CNS = system: SF-539 CNS
# SW-620 colon = system: SW-620 colon
Structure (SMILES),GI50 (OVCAR-8 ovarian),TGI (OVCAR-8 ovarian),GI50 (KM12 colon),TGI (KM12 colon),GI50 (BT-549 breast),TGI (BT-549 breast),GI50 (U251 CNS),TGI (U251 CNS),GI50 (HL-60(TB) leukemia),TGI (HL-60(TB) leukemia),GI50 (786-0 renal),TGI (786-0 renal),GI50 (HCT-116 colon),TGI (HCT-116 colon),GI50 (RXF 393 renal),TGI (RXF 393 renal),GI50 (SF-539 CNS),TGI (SF-539 CNS),GI50 (SW-620 colon),TGI (SW-620 colon)
CC(=O)[O][Hg][c]1c(C)c(C)c(C)c(C)c1C,1.93 µM,3.88 µM,4.06 µM,15.3 µM,1.16 µM,2.38 µM,0.399 µM,1.61 µM,1.91 µM,4.75 µM,1.65 µM,3.03 µM,3.38 µM,11.8 µM,0.712 µM,1.93 µM,1.66 µM,3.25 µM,–,–
COc1ccc2cc(C(=O)/C=C/c3cccc(OC)c3OC)ccc2c1,8.88 µM,33.6 µM,13 µM,33.1 µM,20.6 µM,63.1 µM,7.9 µM,22 µM,–,–,4.26 µM,16.6 µM,3.62 µM,13.3 µM,3.76 µM,12.9 µM,11.1 µM,26.1 µM,9.53 µM,29.1 µM
COc1cc([N+](=O)[O-])ccc1NC(=O)C(F)(F)F,–,> 100 µM,–,> 100 µM,–,> 100 µM,–,> 100 µM,–,> 100 µM,–,> 100 µM,–,> 100 µM,–,–,–,> 100 µM,–,> 100 µM
O=C(NC1CCCCCC1)C1C(=O)N(C2CCCCCC2)C(=O)/C1=N\O (centres undefined),–,> 100 µM,–,> 100 µM,–,–,–,34.9 µM,–,47.8 µM,–,> 100 µM,–,31.8 µM,–,48.2 µM,–,61.3 µM,–,> 100 µM
COc1cc2c3c(n(CCCCl)c(=O)c2cc1OC)-c1ccccc1C3=O,13.4 µM,> 100 µM,> 100 µM,> 100 µM,> 100 µM,> 100 µM,11.9 µM,> 100 µM,–,–,12.3 µM,> 100 µM,2.46 µM,> 100 µM,–,–,14.1 µM,> 100 µM,–,–
Cc1ccc(C(=O)/C=C/c2ccccc2O)c(C)c1,–,> 100 µM,–,> 100 µM,–,–,–,> 100 µM,–,> 100 µM,–,> 100 µM,–,> 100 µM,–,> 100 µM,–,> 100 µM,–,> 100 µM
CCc1cccc(C)c1NC(C)=O,–,> 100 µM,–,> 100 µM,–,–,–,> 100 µM,–,> 100 µM,–,> 100 µM,–,> 100 µM,–,> 100 µM,–,> 100 µM,–,> 100 µM
COC(=O)C1=C(c2ccc3c(c2)OCO3)O[C@H](c2ccc3c(c2)OCO3)[C@H]1COC(C)=O,–,> 100 µM,–,> 100 µM,–,–,–,> 100 µM,–,> 100 µM,–,> 100 µM,–,> 100 µM,–,> 100 µM,–,> 100 µM,–,> 100 µM
NC1C2(CCCCCC2)NC(=O)C12CCCCCC2 (centres undefined),–,> 100 µM,–,> 100 µM,–,–,–,> 100 µM,–,> 100 µM,–,> 100 µM,–,> 100 µM,–,> 100 µM,–,> 100 µM,–,> 100 µM
Cc1ccc(NC(=O)C2C(=O)N(c3ccc(C)c(C)c3)C(=O)/C2=N/O)cc1C (centres undefined),–,> 100 µM,–,> 100 µM,–,–,–,> 100 µM,–,> 100 µM,–,> 100 µM,–,> 100 µM,–,> 100 µM,–,> 100 µM,–,37.2 µM
CCCCCCCCCCC(O)C1CCC(C2CCC(C(O)CCCCC(O)CCCCCC(O)CC3=CC(C)OC3=O)O2)O1 (centres undefined),–,–,> 25 µM,> 25 µM,–,> 25 µM,5.65 µM,> 25 µM,> 25 µM,8.62 µM and > 25 µM,3.53 µM,> 25 µM,1.04 µM,> 25 µM,–,> 25 µM,–,> 25 µM,3.93 µM,> 25 µM
COC(=O)c1cc2c(c(C(=O)OC)c1O)C(=O)C=CC2=O,> 9.1 µM,> 40.4 µM,> 9.1 µM,> 58.3 µM,–,–,> 9.1 µM,> 55.8 µM,–,> 24.4 µM,> 9.1 µM,> 56.1 µM,3.49 µM,> 9.1 µM and 16.9 µM,> 9.1 µM,> 48.9 µM,> 9.1 µM,> 56.1 µM,> 9.1 µM,> 21.3 µM
CN(C)C(=S)/N=c1\ss/c(=N\C(=S)N(C)C)n1-c1ccc2c(c1)OCO2,–,> 100 µM,–,> 100 µM,–,–,–,> 100 µM,–,> 100 µM,–,> 100 µM,–,> 100 µM,–,> 100 µM,–,> 100 µM,–,> 100 µM
CCC(C)(O)c1cn(-c2cccc(S(=O)(=O)O)c2)nn1 (centres undefined),–,> 100 µM,–,> 100 µM,–,–,–,> 100 µM,–,> 100 µM,–,> 100 µM,–,> 100 µM,–,> 100 µM,–,> 100 µM,–,> 100 µM
CC(=O)c1ccc(NC(=O)/C(Cc2ccccn2)=N/NC(=O)C[N+](C)(C)C)cc1,–,> 100 µM,–,> 100 µM,–,–,–,> 100 µM,–,> 100 µM,–,> 100 µM,–,> 100 µM,–,> 100 µM,–,> 100 µM,–,> 100 µM
O=C(O)C1C(C(=O)O)C(C(=O)O)C1C(=O)O (centres undefined),–,> 100 µM,–,> 100 µM,–,> 100 µM,–,> 100 µM,–,–,–,> 100 µM,–,> 100 µM,–,> 100 µM,–,> 100 µM,–,> 100 µM
CCCCC/C=C/C/C=C/CCCCCCCC1=NC(C)(C)CN1C(C)C,–,–,1.61 µM,2.96 µM,5.84 µM,23 µM,1.53 µM,2.87 µM,1.48 µM,3.43 µM,2.24 µM,5.12 µM,–,–,2.1 µM,4.8 µM,1.82 µM,3.3 µM,1.6 µM,2.99 µM
COc1ccc(OC)c(/C=C/NC=O)c1,–,> 100 µM,–,> 100 µM,–,–,–,> 100 µM,–,> 100 µM,–,> 100 µM,–,> 100 µM,–,> 100 µM,–,> 100 µM,–,> 100 µM
C[C@]12CC[C@@H]3c4ccc(O)cc4CC[C@H]3[C@@H]1CC[C@@H]2NS(=O)(=O)c1ccc(C(F)(F)F)cc1,2.54 µM,6.95 µM,1.87 µM,3.57 µM,1.7 µM,3.2 µM,1.75 µM,3.3 µM,–,–,1.95 µM,3.77 µM,1.74 µM,3.19 µM,1.63 µM,3.13 µM,1.6 µM,2.97 µM,3.23 µM,10.8 µM
